{"source": "patent US6200994A", "about": "“1,4-Disubstituted cyclohexane derivatives for the treatment of depression” (American Home Products Corp, priority 1999, dated 2001)", "key": {"human 5-HT1A receptor": {"target": "T1, human 5-HT1A receptor (Homo sapiens, UniProt P08908)", "T1 construct": "expressed in transfected cells", "T1 sequence (P08908 1-422)": "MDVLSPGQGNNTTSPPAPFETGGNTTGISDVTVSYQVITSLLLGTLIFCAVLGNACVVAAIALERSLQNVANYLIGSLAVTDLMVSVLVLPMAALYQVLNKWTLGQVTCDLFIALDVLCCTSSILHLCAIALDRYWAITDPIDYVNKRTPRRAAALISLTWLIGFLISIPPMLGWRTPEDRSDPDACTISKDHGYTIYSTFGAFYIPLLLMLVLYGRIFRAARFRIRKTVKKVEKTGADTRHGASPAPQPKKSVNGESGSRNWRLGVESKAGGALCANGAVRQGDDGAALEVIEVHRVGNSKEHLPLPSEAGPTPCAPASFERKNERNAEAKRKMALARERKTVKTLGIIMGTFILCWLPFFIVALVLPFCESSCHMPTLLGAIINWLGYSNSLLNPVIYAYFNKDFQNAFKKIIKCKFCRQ", "assay": "[3H]8-OH-DPAT binding to human 5-HT1A receptor in CHO cell membranes", "description": "The PCR cloning of the human 5-HT1A receptor subtype from a human genomic library has been described previously by Chanda et al., Mol. Pharmacol., 43:516 (1993). A stable Chinese hamster ovary cell line expressing the human 5-HT1A receptor subtype (5-HT1A.CHO cells) was employed throughout this study. Cells were maintained in DMEM supplemented with 10% fetal calf serum, non-essential amino acids and penicillin/ streptomycin.\nCells were grown to 95-100% confluency as a monolayer before membranes were harvested for binding studies. Cells were gently scraped from the culture plates, transferred to centrifuge tubes, and washed twice by centrifugation (2000 rpm for 10 min., 4° C.) in buffer (50 mM Tris; pH 7.5). The resulting pellets were aliquoted and maintained at -80.C. On the day of assay, the cells were thawed on ice, and resuspended in buffer. Studies were conducted using [^3 H]8-OH-DPAT as the radioligand. The binding assay was performed in 96 well microtiter plates in a final total volume of 250 μL of buffer. Comparison experiments were performed by using 7 concentrations of unlabelled drug and a final ligand concentration of 1.5 nM. Non-specific binding was determined in the presence of 10 μM 5HT. Saturation analysis was conducted by using [^3 H]8-OH-DPAT at concentrations ranging from 0.3-30 nM. […]"}, "serotonin transporter": {"target": "T2, serotonin transporter (Rattus norvegicus, UniProt P31652)", "T2 construct": "frontal cortical membranes prepared from male Sprague-Dawley rats; from tissue; host or cells: frontal cortex membranes of male Sprague-Dawley rats", "T2 sequence (P31652 whole entry)": "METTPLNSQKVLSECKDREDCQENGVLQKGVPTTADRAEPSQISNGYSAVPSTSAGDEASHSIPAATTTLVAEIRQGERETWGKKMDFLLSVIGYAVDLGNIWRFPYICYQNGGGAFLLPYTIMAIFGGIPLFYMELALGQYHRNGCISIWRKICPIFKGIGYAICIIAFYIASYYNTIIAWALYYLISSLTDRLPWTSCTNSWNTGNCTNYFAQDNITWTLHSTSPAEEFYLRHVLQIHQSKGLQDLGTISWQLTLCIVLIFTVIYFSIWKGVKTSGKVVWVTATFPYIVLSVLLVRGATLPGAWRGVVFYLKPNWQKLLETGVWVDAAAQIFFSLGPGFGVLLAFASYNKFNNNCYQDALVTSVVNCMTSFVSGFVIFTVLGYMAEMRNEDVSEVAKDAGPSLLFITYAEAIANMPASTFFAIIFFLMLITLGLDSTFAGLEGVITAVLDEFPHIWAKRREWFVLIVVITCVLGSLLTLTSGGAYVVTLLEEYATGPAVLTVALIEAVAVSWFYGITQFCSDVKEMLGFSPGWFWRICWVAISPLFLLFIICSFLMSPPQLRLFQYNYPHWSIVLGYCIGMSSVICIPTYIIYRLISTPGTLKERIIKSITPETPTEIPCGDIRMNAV", "assay": "3H-paroxetine binding, affinity for the serotonin transporter (ST) in frontal cortical membranes", "parameters": "species or system male Sprague-Dawley rats", "conditions": "1 h, @ 100 nM", "description": "A protocol similar to that used by Cheetham et al., Neuropharmacol., 32:737 (1993) was used to determine the affinity of compounds for the serotonin transporter. Briefly, frontal cortical membranes prepared from male Sprague-Dawley rats were incubated with ^3 H-paroxetine (0.1 nM) for 60 min at 25° C. All tubes also contained either vehicle, test compound (one to eight concentrations), or a saturating concentration of fluoxetine (10 μM) to define […]. All reactions were terminated by the addition of ice cold Tris buffer followed by rapid filtration using a Tom Tech filtration device to separate bound from free ^3 H-paroxetine. Bound radioactivity was quantitated using a Wallac 1205 Beta Plate® counter. Nonlinear regression analysis was used to determine IC50 values which were converted to Ki values using the method set forth in Cheng and Prusoff, Biochem. Pharmacol., 22:3099 (1973) (Ki=IC50/((Radioligand conc.)/(1+KD))."}}}
{"smiles": "COc1ccsc1C1=CCN([C@H]2CC[C@H](c3c[nH]c4ccc(F)cc43)CC2)CC1", "note": "[Example 2, 5-Fluoro-3-{(1,4-trans)-4-[4-(3-methoxy-thiophen-2-yl)-3,6-dihydro-2H-pyridin-1-yl]-cyclohexyl}-1H-indole]", "values": [{"measurement": "Ki", "setting": "human 5-HT1A receptor", "value": 20.4, "unit": "nM"}, {"measurement": "inhibition at 0.1 µM", "setting": "serotonin transporter", "value": 18, "unit": "%"}]}
{"smiles": "COc1ccsc1C1=CCN([C@H]2CC[C@@H](c3c[nH]c4ccc(F)cc43)CC2)CC1", "note": "[Example 1, 5-Fluoro-3-{(1,4-cis)-4-[4-(3-methoxy-thiophen-2-yl)-3,6-dihydro-2H-pyridin-1-yl]-cyclohexyl}-1H-indole]", "values": [{"measurement": "inhibition at 1 µM", "setting": "human 5-HT1A receptor; 0.5 h, @ 1000 nM, [3H]8-OH-DPAT", "value": 48, "unit": "%"}]}
